Results published in patent US9416141B2 (University of Washington through its Center for …, priority 2012, dated 2016).
Counter-ions that a name gives are not always drawn.

Test system: hair cells
Assay: Hair cell toxicity assay in zebrafish (neomycin-induced hair cell death, DASPEI staining of neuromasts)
Assay type: in vivo
Conditions: Danio rerio; for Emax at 25 µM: maximum observed @ 25 μM test compound; for EC50: zebrafish larvae 5-7 dpf, 1 h pre-treatment, then 200 micromolar neomycin + test compound 30 min, read-out: HC50 (concentration that would produce 50% hair cell survival); for Emax at 8.3 µM: maximum observed @ 8.3 μM test compound; for Emax at 2.8 µM: maximum observed @ 2.8 μM test compound
Method in brief: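 Hair cell survival, as % of untreated controls, came from DASPEI scoring (0-2 each, ten neuromasts on one side) in 5-7 dpf larvae. These had 1 h compound pre-exposure (0.010-25 μM), then 200 μM neomycin with compound for 30 min. HCmax is peak protection; HC50 interpolated between flanking concentrations only when ≥50% survive.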

[1] = 200 micromolar neomycin, read-out: Max HC Protection (HCmax, % hair cell survival)

`CCN1CCc2c(sc(NC(=O)Nc3cccc(C#N)c3)c2C(N)=O)C1` [Example 73, 2-[3-(3-Cyanophenyl)ureido]-6-ethyl-4,5,6,7-tetrahydrothieno[2,3-c]pyridine-3-carboxamide hydrochloride] gave an Emax at 25 µM [1] of 51% and an EC50 greater than 10 µM.

`CCN1CCc2c(sc(NC(=O)Nc3ccc(Cc4ccccc4)cc3)c2C(N)=O)C1` [Example 226, 2-{[(4-benzylphenyl)carbamoyl]amino}-6-ethyl-4H,5H,6H,7H-thieno[2,3-c]pyridine-3-carboxamide] was tested, and the Emax at 8.3 µM [1] was 68% and the EC50 was 1 to 10 µM.

In the case of `CC(C)(C)OC(=O)C[N+]1(C)CCc2c(sc(NC(=O)Nc3ccc(Cl)cc3)c2C(N)=O)C1` (stereo not shown) [Example 147, 6-(2-tert-Butoxy-2-oxoethyl)-3-carbamoyl-2-[3-(4-chlorophenyl)ureido]-6-methyl-4,5,6,7-tetrahydrothieno[2,3-c]pyridin-6-ium iodide], the Emax at 2.8 µM [1] is reported as 90% and the EC50 is reported as less than 1 µM.

Compound `CCN1CCc2c(sc(NC(=O)Nc3ccc(Cl)cc3)c2C(=O)NCCO)C1` [Example 101, 2-[3-(4-Chlorophenyl)ureido]-6-ethyl-N-(2-hydroxyethyl)-4,5,6,7-tetrahydrothieno[2,3-c]pyridine-3-carboxamide hydrochloride] has an Emax at 25 µM [1] of 74% and an EC50 of 1 to 10 µM.

For `CC1(C)Cc2c(sc(NC(=O)Nc3ccc(Cl)cc3)c2C(N)=O)C(C)(C)N1` [Example 90, 2-[3-(4-Chlorophenyl)ureido]-5,5,7,7-tetramethyl-4,5,6,7-tetrahydrothieno[2,3-c]pyridine-3-carboxamide hydrochloride], the Emax at 8.3 µM [1] was 99% and the EC50 was 1 to 10 µM.

For `COC(=O)C(C)(C)CN1C2CCC1c1sc(NC(=O)Nc3ccc(Cl)cc3)c(C(N)=O)c1C2` (racemic) [Example 134, (+/−)-Methyl 3-{3-carbamoyl-2-[3-(4-chlorophenyl)ureido]-5,6,7,8-tetrahydro-4H-5,8-epiminocyclohepta[b]thiophen-9-yl}-2,2-dimethylpropanoate hydrochloride], the Emax at 0.9 µM (maximum observed @ 0.9 μM test compound, 200 micromolar neomycin, read-out: Max HC Protection (HCmax, % hair cell survival)) was 11%.

With `NC(=O)c1c(NC(=O)Nc2ccc(Cl)cc2)sc2c1CC1CCC2N1` (single isomer, unassigned; (+)) [Example 130, (+)-2-[3-(4-Chlorophenyl)ureido]-5,6,7,8-tetrahydro-4H-5,8-epiminocyclohepta[b]thiophene-3-carboxamide hydrochloride] the Emax at 2.8 µM [1] was 40%.

`CC[N+]1(C)CCc2c(sc(NC(=O)Nc3ccc(Cl)cc3)c2C(N)=O)C1` (stereo not shown) [Example 136, 3-Carbamoyl-2-[3-(4-chlorophenyl)ureido]-6-ethyl-6-methyl-4,5,6,7-tetrahydrothieno[2,3-c]pyridin-6-ium iodide] gave an Emax at 25 µM [1] of 76% and an EC50 of 1 to 10 µM.

With `CCCC[N+]1(C)CCc2c(sc(NC(=O)Nc3ccc(Cl)cc3)c2C(N)=O)C1` (stereo not shown) [Example 219, 6-butyl-3-carbamoyl-2-{[(4-chlorophenyl)carbamoyl]amino}-6-methyl-4H,5H,6H,7H-thieno[2,3-c]pyridin-6-ium] the Emax at 25 µM [1] was 92% and the EC50 was less than 1 µM.

`NC(=O)CCN1CCc2c(sc(NC(=O)Nc3ccc(Cl)cc3)c2C(N)=O)C1` [Example 50, 6-(3-amino-3-oxopropyl)-2-[3-(4-chlorophenyl)ureido]-4,5,6,7-tetrahydrothieno[2,3-c]pyridine-3-carboxamide hydrochloride] showed an Emax at 25 µM [1] of 82% and an EC50 of 1 to 10 µM.

With `NC(=O)c1c(NC(=O)Nc2ccc(Cl)cc2)sc2c1CC1CCC2N1CC1CCCCC1` (racemic) [Example 131, (+/−)-2-[3-(4-chlorophenyl)ureido]-9-(cyclohexylmethyl)-5,6,7,8-tetrahydro-4H-5,8-epiminocyclohepta[b]thiophene-3-carboxamide hydrochloride] the Emax at 2.8 µM [1] was 88% and the EC50 was less than 1 µM.

`CC[N+]1(C)CCc2c(sc(NC(=O)Nc3ccc4cc(F)ccc4c3)c2C(N)=O)C1` (stereo not shown) [Example 180, 3-Carbamoyl-6-ethyl-2-[3-(6-fluoronaphthalen-2-yl)ureido]-6-methyl-4,5,6,7-tetrahydrothieno[2,3-c]pyridin-6-ium iodide] showed an Emax at 25 µM [1] of 102% and an EC50 of 1 to 10 µM.
